Test results published in article PMC9238401, “Peptide Conjugates Derived from flg15, Pep13, and PIP1 That Are Active against Plant-Pathogenic Bacteria and Trigger Plant Defense Responses” (Applied and Environmental Microbiology, 2022).
Non-standard residues stand in square brackets, D forms with d. Residues, ends and D or L forms follow the SMILES beside them. No end group written: not given here.

Tests used:
[1] = test system: Erwinia amylovora PMV6076; test: In vitro growth inhibition (MIC); assay type: cell-based; settings: TSB, 25°C, 48 h, OD 600 nm (Bioscreen C), three replicates, experiment repeated twice; MIC = lowest concentration with no growth, given as range
In short: (§1)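 Strains were grown 24 h at 25°C on agar, then suspended in sterile water at 10^8 CFU mL^−1 and mixed with peptide dilutions in Trypticase soy broth. Plates were incubated at 25°C with shaking and OD600 read hourly for 48 h. MIC is the lowest concentration with no growth at 48 h.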

[2] = test system: Pseudomonas syringae pv. actinidiae Psa3700.1.1; test: In vitro growth inhibition (MIC); assay type: cell-based; settings: TSB, 25°C, 48 h, OD 600 nm (Bioscreen C), three replicates, experiment repeated twice; MIC given as range
In short: as §1

[3] = test system: Pseudomonas syringae pv. syringae EPS94; test: In vitro growth inhibition (MIC); assay type: cell-based; settings: TSB, 25°C, 48 h, OD 600 nm (Bioscreen C), three replicates, experiment repeated twice; MIC given as range
In short: as §1

[4] = test system: Xanthomonas arboricola pv. pruni CFBP5563; test: In vitro growth inhibition (MIC); assay type: cell-based; settings: TSB, 25°C, 48 h, OD 600 nm (Bioscreen C), three replicates, experiment repeated twice; MIC given as range
In short: as §1

[5] = test system: Xanthomonas fragariae Xf349-9A; test: In vitro growth inhibition (MIC); assay type: cell-based; settings: TSB, 25°C, 48 h, OD 600 nm (Bioscreen C), three replicates, experiment repeated twice; MIC given as range
In short: as §1

[6] = test system: Xanthomonas axonopodis pv. vesicatoria 2133-2; settings: TSB, 25°C, 48 h, OD 600 nm (Bioscreen C), three replicates, experiment repeated twice; MIC given as range
In short: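 Bacteria grown 24 h (48 h for Xanthomonas axonopodis, X. fragariae) at 25°C, suspended at 10^8 CFU mL^−1, mixed with peptide dilutions in TSB.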

[7] = test system: plant-pathogenic bacteria (E. amylovora, X. arboricola pv. pruni, X. fragariae, X. axonopodis pv. vesicatoria, P. syringae pv. actinidiae, P. syringae pv. …); settings: 24 h
horse erythrocytes = settings: TRIS buffer pH 7.2, 1 h, 37°C, absorbance 540 nm, relative to melittin 100 μM, ± confidence interval (α = 0.05)
In short: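 Hemolysis measured as absorbance at 540 nm of supernatant, expressed as percent of melittin-lysed control after buffer subtraction. Compound solutions (750, 500, 300, 100 μM, Tris-buffered saline pH 7.2) were combined 1:1 with washed horse red cells for 1 h, 37°C, shaking.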

tobacco leaves = test: Effect of peptide infiltration on tobacco leaves (phytotoxicity); assay type: in vivo; settings: in vivo
In short: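 Phytotoxicity was scored as necrotic lesion diameter 48 h post-infiltration. Each peptide was infiltrated at 50, 150 or 250 μM into fully expanded tobacco leaf mesophyll, on ≥3 leaves from different plants, alongside water and same-molar melittin controls.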

[8] = HPLC retention time as indicator of relative hydrophobicity; assay type: physicochemical; settings: chromatographic, Kromasil 100 C18 (4.6 mm × 40 mm, 3 μm), linear gradient 2 to 100% B over 12 min, 1 mL/min; A 0.1% aqueous TFA, B 0.1% TFA in CH3CN; used as indicator of relative hydrophobicity
Procedure: The parameters related to the structure of the peptide conjugates (sequence, charge, hydrophobic ratio [HR], and HPLC retention time), as well as their physicochemical properties (grand average hydropathicity [GRAVY] and hydrophobic moment [<μH>]) obtained from the online programs ProtParam (Expasy server) and HeliQuest are included in Table 1.
Peptides were analyzed under standard analytical HPLC conditions. Method A: peptides were analyzed with a Dionex liquid chromatography instrument composed of a UV/Vis Dionex UVD170U detector, a P680 Dionex pump, an ASI-100 Dionex automatic injector, and Chromeleon 6.60 software. Detection was performed at a wavelength of 220 nm. Solvent A was 0.1% aqueous trifluoroacetic acid (TFA), and solvent B was 0.1% TFA in CH3CN. Analyses were carried out with a Kromasil 100 C18 (4.6 mm × 40 mm, 3 μm) column with a linear gradient of 2 to 100% B over 7 min at a flow rate of 1 mL/min. Method B: peptides were analyzed with a 1260 Infinity II liquid chromatography instrument (Agilent Technologies) composed of a diode array detector HS, a quaternary pump VL, a 1260 vial sampler, and OpenLab CDS ChemStation software. Analyses were carried out with a Kromasil 100 C18 (4.6 mm × 40 mm, 3 μm) column with a linear gradient of 2 to 100% B over 12 min at a flow rate of 1 mL/min.

| Molecule | MIC, Ea [1] | MIC, Psa [2] | MIC, Pss [3] | MIC, Xap [4] | MIC, Xf [5] | MIC, Xav [6] | MIC against all the bacteria tested (span over the six pathogens) [7] | Percent hemolysis at 50 μM (horse erythrocytes) | Percent hemolysis at 150 μM (horse erythrocytes) | Percent hemolysis at 250 μM (horse erythrocytes) | Percent hemolysis at 375 μM (horse erythrocytes) | Size of the lesions in infiltrated tobacco leaves at 50 μM (tobacco leaves) | Size of the lesions in infiltrated tobacco leaves at 150 μM (tobacco leaves) | Size of the lesions in infiltrated tobacco leaves at 250 μM (tobacco leaves) | tR (min), HPLC retention time (method B) [8] |
| --- | --- | --- | --- | --- | --- | --- | --- | --- | --- | --- | --- | --- | --- | --- | --- |
| CC[C@H](C)[C@H](NC(=O)[C@H](CCCCN)NC(=O)[C@H](CCCCN)NC(=O)[C@@H](Cc1ccccc1)NC(=O)[C@H](CC(C)C)NC(=O)[C@H](CCCCN)NC(=O)[C@H](CCCCN)NC(=O)[C@H](CCC(=O)O)NC(=O)[C@H](Cc1ccc(O)cc1)NC(=O)[C@@H](NC(=O)[C@H](CCCCN)NC(=O)[C@H](Cc1ccccc1)NC(=O)CNC(=O)[C@H](CCCNC(=N)N)NC(=O)[C@@H](NC(=O)[C@@H]1CCCN1C(=O)[C@H](CCC(N)=O)NC(=O)[C@H](CC(N)=O)NC(=O)[C@H](Cc1c[nH]c2ccccc12)NC(=O)[C@@H](N)C(C)C)C(C)C)C(C)C)C(=O)N[C@@H](CC(C)C)C(=O)N[C@@H](CCCCN)C(=O)N[C@@H](Cc1ccc(O)cc1)C(=O)N[C@@H](CC(C)C)C(N)=O [Pep13-BP143] (H-VWNQPVRGFKVYEKKL[dF]KKILKYL-NH2) | 6.2 to 12.5 µM | 3.1 to 6.2 µM | 6.2 to 12.5 µM | 0.8 to 1.6 µM | 3.1 to 6.2 µM | 0.8 to 1.6 µM | 0.8 to 12.5 µM | 5 ± 0.5% | 8 ± 0.3% | 10 ± 0.6% | 17 ± 0.4% | 0.16 ± 0.15 cm | 0.52 ± 0.14 cm | 0.62 ± 0.13 cm | 5.97 min |
| KKLFKKILKKLVWNQPVRGFKVYE [BP16-Pep13] | 6.2 to 12.5 µM | 1.6 to 3.1 µM | 1.6 to 3.1 µM | 0.8 to 1.6 µM | 1.6 to 3.1 µM | 1.6 to 3.1 µM | 0.8 to 12.5 µM | 1 ± 0.4% | 1 ± 0.3% | 1 ± 0.5% | 2 ± 0.4% | 0.23 ± 0.13 cm | 0.45 ± 0.12 cm | 1.02 ± 0.32 cm | 5.12 min |
| CC[C@H](C)[C@H](NC(=O)[C@H](CCCCN)NC(=O)[C@H](CCCCN)NC(=O)[C@@H](Cc1ccccc1)NC(=O)[C@H](CC(C)C)NC(=O)[C@H](CCCCN)NC(=O)[C@@H](N)CCCCN)C(=O)N[C@@H](CC(C)C)C(=O)N[C@@H](CCCCN)C(=O)N[C@@H](Cc1ccc(O)cc1)C(=O)N[C@@H](CC(C)C)C(=O)N[C@H](C(=O)N[C@@H](Cc1c[nH]c2ccccc12)C(=O)N[C@@H](CC(N)=O)C(=O)N[C@@H](CCC(N)=O)C(=O)N1CCC[C@H]1C(=O)N[C@H](C(=O)N[C@@H](CCCNC(=N)N)C(=O)NCC(=O)N[C@@H](Cc1ccccc1)C(=O)N[C@@H](CCCCN)C(=O)N[C@H](C(=O)N[C@@H](Cc1ccc(O)cc1)C(=O)N[C@@H](CCC(=O)O)C(=O)O)C(C)C)C(C)C)C(C)C [BP143-Pep13] (H-KKL[dF]KKILKYLVWNQPVRGFKVYE-OH) | 1.6 to 3.1 µM | 0.8 to 1.6 µM | 1.6 to 3.1 µM | 1.6 to 3.1 µM | 6.2 to 12.5 µM | 1.6 to 3.1 µM | 0.8 to 12.5 µM | 5 ± 1.9% | 9 ± 0.4% | 16 ± 1.9% | 29 ± 0.9% | 0.10 ± 0.12 cm | 0.44 ± 0.16 cm | 0.60 ± 0.25 cm | 5.62 min |
